Results taken from patent US12692269B2, “Therapeutic compounds” (Genentech, Inc., priority 2019, dated 2026).

Tests used:
Type in all cases: binding
[1] = target: TEAD1 YAP50-100 (Homo sapiens, UniProt P28347); test: TEAD1-YAP HTRF (TR-FRET) protein-protein interaction assay; conditions: TEAD1, YAP peptide 50-100, HTRF; for EC50: read-out: TEAD1 YAP50-100 HTRF combined: EC50
Method: (§1) Purified His-tagged TEAD protein (YAP Binding Domain, amino acids 217-447) is pre-incubated with Europium labelled anti-His antibody tracer (Perkin Elmer Cat #AD0110). Small molecule Inhibitors are then incubated with the TEAD-Eu protein complex for 30 minutes to allow for binding to TEAD protein. Biotinylated YAP peptide for TEAD-YAP assays (AA's 50-100) or biotinylated TAZ peptide for TEAD-TAZ assays (AA's 13-57) that has been pre-incubated with streptavidin-xl665 acceptor (CIS-Bio Cat #610SAXAC) or is added to the compound-TEAD mix. The TEAD-YAP-inhibitor mixture is then incubated for 60 minutes at room temperature. All reactions are carried out in a polystyrene plate. After 60 minutes, the plate is read on a plate reader using TR-FRET mode with wavelengths of 665 nm/615 nm. If YAP or TAZ binds to TEAD as expected, a TR-FRET signal results from the proximity of YAP or TAZ and TEAD after binding. If an inhibitor such as peptide 17 (Selleckchem Cat #58164) interferes with YAP-TEAD or TAZ-TEAD binding, the disruption of the YAP or TAZ:TEAD interaction results in a decrease in TR-FRET signal. The potency of compounds as YAP:TEAD or TAZ:TEAD protein-protein interaction (PPi) inhibitors is determined by an IC50 or EC50 value generated using a non-linear four parameter curve fit.

[2] = target: TEAD2 YAP50-100 (Homo sapiens, UniProt Q15562); test: TEAD2-YAP HTRF (TR-FRET) protein-protein interaction assay; conditions: TEAD2, YAP peptide 50-100, HTRF; for EC50: read-out: TEAD2 YAP50-100 HTRF combined: EC50
Sequence of TEAD2 YAP50-100 (Q15562 217-447): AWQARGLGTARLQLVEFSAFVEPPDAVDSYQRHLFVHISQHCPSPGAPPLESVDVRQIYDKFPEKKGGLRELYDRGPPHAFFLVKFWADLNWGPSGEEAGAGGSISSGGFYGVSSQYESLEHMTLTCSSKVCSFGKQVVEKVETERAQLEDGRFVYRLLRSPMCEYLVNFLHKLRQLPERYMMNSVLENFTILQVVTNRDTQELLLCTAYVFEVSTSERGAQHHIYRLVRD
Method: as §1

[3] = target: TEAD3 YAP50-100 (Homo sapiens, UniProt Q99594); test: TEAD3-YAP HTRF (TR-FRET) protein-protein interaction assay; conditions: TEAD3, YAP peptide 50-100, HTRF; for EC50: read-out: TEAD3 YAP50-100 HTRF combined: EC50
Sequence of TEAD3 YAP50-100 (Q99594 173-435 limits assumed): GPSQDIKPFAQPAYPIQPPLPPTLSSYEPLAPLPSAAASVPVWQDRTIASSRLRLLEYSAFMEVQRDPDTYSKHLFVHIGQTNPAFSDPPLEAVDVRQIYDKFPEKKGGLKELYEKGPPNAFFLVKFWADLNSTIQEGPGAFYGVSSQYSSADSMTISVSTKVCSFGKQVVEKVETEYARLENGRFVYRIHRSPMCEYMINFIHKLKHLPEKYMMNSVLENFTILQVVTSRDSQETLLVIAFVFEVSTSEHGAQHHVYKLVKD
Method: as §1

[4] = target: TEAD4 YAP50-100 (Homo sapiens, UniProt Q15561); test: TEAD4-YAP HTRF (TR-FRET) protein-protein interaction assay; conditions: TEAD4, YAP peptide 50-100, HTRF; for EC50: read-out: TEAD4 YAP50-100 HTRF combined: EC50
Sequence of TEAD4 YAP50-100 (Q15561 217-434 limits assumed): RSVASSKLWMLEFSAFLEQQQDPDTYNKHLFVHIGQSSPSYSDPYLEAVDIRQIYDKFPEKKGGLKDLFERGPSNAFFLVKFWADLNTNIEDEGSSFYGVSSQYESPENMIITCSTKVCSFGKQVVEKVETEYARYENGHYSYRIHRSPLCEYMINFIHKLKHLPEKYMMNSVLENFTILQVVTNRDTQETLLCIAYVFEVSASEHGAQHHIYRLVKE
Method: as §1

[5] = target: TEAD1 TAZ (amino acids 13-57) (Homo sapiens, UniProt P28347); test: TEAD1-TAZ HTRF (TR-FRET) protein-protein interaction assay; conditions: for TEAD1 TAZ HTRF combined: Max % Inhibition: TEAD1, TAZ peptide; for EC50: TEAD1-TAZ HTRF, TR-FRET 665 nm/615 nm, read-out: TEAD1 TAZ HTRF combined: EC50
Sequence of TEAD1 TAZ (amino acids 13-57) (P28347 167-426 limits assumed): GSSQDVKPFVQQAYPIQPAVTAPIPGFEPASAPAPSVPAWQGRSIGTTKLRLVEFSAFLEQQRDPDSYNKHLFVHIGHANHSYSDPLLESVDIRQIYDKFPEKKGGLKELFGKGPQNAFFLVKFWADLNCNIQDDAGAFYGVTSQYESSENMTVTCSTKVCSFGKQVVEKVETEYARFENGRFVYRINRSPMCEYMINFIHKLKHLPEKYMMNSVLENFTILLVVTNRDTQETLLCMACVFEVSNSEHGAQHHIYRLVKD
Method: as §1

[6] = target: TEAD2 TAZ (amino acids 13-57) (Homo sapiens, UniProt Q15562); test: TEAD2-TAZ HTRF (TR-FRET) protein-protein interaction assay; conditions: for TEAD2 TAZ HTRF combined: Max % Inhibition: TEAD2, TAZ peptide; for EC50: TEAD2-TAZ HTRF, TR-FRET 665 nm/615 nm, read-out: TEAD2 TAZ HTRF combined: EC50
Sequence of TEAD2 TAZ (amino acids 13-57) (Q15562 217-447): as the sequence (Q15562 217-447) above
Method: as §1

[7] = target: TEAD3 TAZ (amino acids 13-57) (Homo sapiens, UniProt Q99594); test: TEAD3-TAZ HTRF (TR-FRET) protein-protein interaction assay; conditions: for TEAD3 TAZ HTRF combined: Max % Inhibition: TEAD3, TAZ peptide; for EC50: TEAD3-TAZ HTRF, TR-FRET 665 nm/615 nm, read-out: TEAD3 TAZ HTRF combined: EC50
Sequence of TEAD3 TAZ (amino acids 13-57) (Q99594 173-435 limits assumed): as the sequence (Q99594 173-435 limits assumed) above
Method: as §1

[8] = target: TEAD4 TAZ (amino acids 13-57) (Homo sapiens, UniProt Q15561); test: TEAD4-TAZ HTRF (TR-FRET) protein-protein interaction assay; conditions: for TEAD4 TAZ HTRF combined: Max % Inhibition: TEAD4, TAZ peptide; for EC50: TEAD4-TAZ HTRF, TR-FRET 665 nm/615 nm, read-out: TEAD4 TAZ HTRF combined: EC50
Sequence of TEAD4 TAZ (amino acids 13-57) (Q15561 217-434 limits assumed): as the sequence (Q15561 217-434 limits assumed) above
Method: as §1

Sequence of TEAD1 YAP50-100 (P28347 167-426 limits assumed): as the sequence (P28347 167-426 limits assumed) above

O=C(c1c(-c2ncccn2)nn2c(=O)cc(-c3ccc(CC4CCCC4)cc3)[nH]c12)N1CC(CF)C1 [Compound 24, 5-(4-(Cyclopentylmethyl)phenyl)-3-(3-(fluoromethyl)azetidine-1-carbonyl)-2-(pyrimidin-2-yl) pyrazolo[1,5-a]pyrimidin-7(4H)-one]
TEAD1 YAP50-100 HTRF combined: Max % Inhibition [1]: 63.0% | EC50 [1]: 20 nM | TEAD2 YAP50-100 HTRF combined: Max % Inhibition [2]: 66.0% | TEAD3 YAP50-100 HTRF combined: Max % Inhibition [3]: 52.0% | EC50 [3]: 20 nM | TEAD4 YAP50-100 HTRF combined: Max % Inhibition [4]: 51.0% | EC50 [4]: 10 nM | TEAD1 TAZ HTRF combined: Max % Inhibition [5]: 57.0% | EC50 [5]: 20 nM | TEAD2 TAZ HTRF combined: Max % Inhibition [6]: 66.5% | TEAD3 TAZ HTRF combined: Max % Inhibition [7]: 43.0% | EC50 [7]: 30 nM | TEAD4 TAZ HTRF combined: Max % Inhibition [8]: 54.0% | EC50 [8]: 10 nM

C[C@H]1[C@@H](CF)CN1C(=O)c1c(C(=O)N(C)C)nn2c(=O)cc(-c3ccc(C4CCCCC4)cc3)[nH]c12 [Compound 5, 5-(4-Cyclohexylphenyl)-3-((2S,3S)-3-(fluoromethyl)-2-methylazetidine-1-carbonyl)-N,N-dimethyl-7-oxo-4,7-dihydropyrazolo[1,5-a]pyrimidine-2-carboxamide]
TEAD1 YAP50-100 HTRF combined: Max % Inhibition [1]: 73.0% | EC50 [1]: 80 nM | TEAD2 YAP50-100 HTRF combined: Max % Inhibition [2]: 83.0% | EC50 [2]: 10 nM | TEAD3 YAP50-100 HTRF combined: Max % Inhibition [3]: 75.5% | EC50 [3]: 130 nM | TEAD4 YAP50-100 HTRF combined: Max % Inhibition [4]: 56.0% | EC50 [4]: 250 nM | TEAD1 TAZ HTRF combined: Max % Inhibition [5]: 62.0% | EC50 [5]: 70 nM | TEAD2 TAZ HTRF combined: Max % Inhibition [6]: 78.5% | EC50 [6]: 10 nM | TEAD3 TAZ HTRF combined: Max % Inhibition [7]: 66.5% | EC50 [7]: 140 nM | TEAD4 TAZ HTRF combined: Max % Inhibition [8]: 41.0% | EC50 [8]: 170 nM

C[C@H]1[C@@H](CF)CN1C(=O)c1c(-c2cnccn2)nn2c(=O)cc(-c3ccc(C4CCCCC4)cc3)[nH]c12 (single isomer, unassigned) [Isomer A, Example 39]
TEAD1 YAP50-100 HTRF combined: Max % Inhibition [1]: 76.0% | EC50 [1]: 60 nM | TEAD2 YAP50-100 HTRF combined: Max % Inhibition [2]: 76.0% | EC50 [2]: 10 nM | TEAD3 YAP50-100 HTRF combined: Max % Inhibition [3]: 71.0% | EC50 [3]: 120 nM | TEAD4 YAP50-100 HTRF combined: Max % Inhibition [4]: 51.5% | EC50 [4]: 60 nM | TEAD1 TAZ HTRF combined: Max % Inhibition [5]: 69.5% | EC50 [5]: 70 nM | TEAD2 TAZ HTRF combined: Max % Inhibition [6]: 77.0% | EC50 [6]: 10 nM | TEAD3 TAZ HTRF combined: Max % Inhibition [7]: 69.5% | EC50 [7]: 130 nM | TEAD4 TAZ HTRF combined: Max % Inhibition [8]: 58.0% | EC50 [8]: 60 nM

[2H]C1([2H])C([2H])([2H])C([2H])([2H])C([2H])(c2ccc(-c3cc(=O)n4nc(-c5nccnc5C)c(C(=O)N5C[C@H](CF)[C@@H]5C)c4[nH]3)cc2)C([2H])([2H])C1([2H])[2H] [Compound 72, 3-[(2S,35)-3-(fluoromethyl)-2-methyl-azetidine-1-carbonyl]-2-(3-methylpyrazin-2-yl)-5-[4-(1,2,2,3,3,4,4,5,5,6,6-undecadeuteriocyclohexyl)phenyl]-4H-pyrazolo[1,5-a]pyrimidin-7-one]
TEAD1 YAP50-100 HTRF combined: Max % Inhibition [1]: 77.0% | EC50 [1]: 70 nM | TEAD2 YAP50-100 HTRF combined: Max % Inhibition [2]: 73.0% | EC50 [2]: 20 nM | TEAD3 YAP50-100 HTRF combined: Max % Inhibition [3]: 76.0% | EC50 [3]: 160 nM | TEAD4 YAP50-100 HTRF combined: Max % Inhibition [4]: 54.0% | EC50 [4]: 30 nM | TEAD1 TAZ HTRF combined: Max % Inhibition [5]: 74.0% | EC50 [5]: 80 nM | TEAD2 TAZ HTRF combined: Max % Inhibition [6]: 75.0% | EC50 [6]: 20 nM | TEAD3 TAZ HTRF combined: Max % Inhibition [7]: 71.5% | EC50 [7]: 170 nM | TEAD4 TAZ HTRF combined: Max % Inhibition [8]: 56.0% | EC50 [8]: 30 nM
